In ChEMBL document CHEMBL3137667, “[Drug-induced liver injury; fourteenth updated edition of the bibliographic database of liver injuries and related drugs]” (Gastroenterol Clin Biol, 2004):

What was measured:
[1] = human
[2] = Times to onset, minimal and maximal, observed in the indexed observations. [column 'DELAI' in source]; details: human
[3] = human; remark: listed apart in the source
[4] = human; remark: listed apart in the source
[5] = human; remark: listed apart in the source
[6] = human, serum
[7] = human; remark: listed apart in the source
[8] = human, serum, 4383 h
[9] = human; remark: listed apart in the source
[10] = Highest frequency of acute liver toxicity observed during clinical trials, expressed as a percentage. [column '% AIGUE' in source]; details: human
[11] = human; remark: listed apart in the source
[12] = human, serum; remark: listed apart in the source
[13] = human; remark: listed apart in the source
[14] = Highest frequency of moderate liver toxicity observed during clinical trials, expressed as a percentage. [column '% BIOL' in source]; details: human
[15] = Proposed mechanism(s) of liver damage. [column 'MEC' in source]; details: human
[16] = human; remark: listed apart in the source
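Wherever Hepatotoxicity (association with vascular disease) is given: count of indexed literature references reporting vascular liver injury in humans, e.g. peliosis hepatitis, hepatic veno-occlusive disease or Budd-Chiari syndrome.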
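Wherever Hepatotoxicity (benign tumour) is given: value is a count of indexed literature references citing a benign tumour confirmed by histopathology.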
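Wherever Hepatotoxicity (choleostasis) is given: human cholestatic liver injury, shown by histopathology or by peak ALT or AST elevation over alkaline phosphatase ratio below 2, value counts indexed literature reports.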
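Wherever Hepatotoxicity (chronic liver disease) is given: chronic liver injury confirmed by histopathology or persistently raised serum aminotransferase activity beyond 6 months, value given as the count of indexed literature references.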
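Wherever Hepatotoxicity (cirrhosis) is given: value is a count of indexed literature references reporting cirrhosis confirmed by histopathology.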
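Wherever Hepatotoxicity (cytolytic) is given: human cytolytic liver injury, shown by histopathology or by a ratio above 5 of peak ALT or AST elevation to alkaline phosphatase elevation, value counts indexed references.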
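Wherever Hepatotoxicity (granulomatous hepatitis) is given: value is a count of indexed literature references reporting granulomatous liver disease confirmed by histopathology.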
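Wherever Hepatotoxicity (malignant tumour) is given: malignant tumour confirmed by histopathology, value gives the count of indexed literature references reporting it.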
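Wherever Hepatotoxicity (severe hepatitis) is given: human clinical data: severe hepatitis, meaning potentially life-threatening liver failure or clinically observed cases, the value counts how many indexed literature references report it.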
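Wherever Hepatotoxicity (steatosis) is given: steatosis confirmed by histopathology, value is the count of indexed references.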

Compound	Hepatotoxicity (severe hepatitis) [1]	Hepatotoxicity (time to onset) [2]	Hepatotoxicity (choleostasis) [3]	Hepatotoxicity (steatosis) [4]	Hepatotoxicity (benign tumour) [5]	Hepatotoxicity (moderate) [6]	Hepatotoxicity (granulomatous hepatitis) [7]	Hepatotoxicity (chronic liver disease) [8]	Hepatotoxicity (malignant tumour) [9]	Hepatotoxicity (acute) [10] [%]	Hepatotoxicity (association with vascular disease) [11]	Hepatotoxicity (acute) [12]	Hepatotoxicity (cirrhosis) [13]	Hepatotoxicity (moderate) [14] [%]	Hepatotoxicity (mechanism) [15]	Hepatotoxicity (cytolytic) [16]	Hepatotoxicity (severe hepatitis) ([1]; Liver)	Hepatotoxicity (acute) ([10]; Liver) [%]	Hepatotoxicity (moderate) ([14]; Liver) [%]
C[C@H](CCc1ccccc1)NC[C@H](O)c1ccc(O)c(C(N)=O)c1 [DILEVALOL]	1	2 weeks	0	0	0	1	0	0	0	0	0	1	0	2	Allergic	1	–	–	–
CC1=C(C(=O)O)N2C(=O)[C@@H](NC(=O)[C@H](N)c3ccc(O)cc3)[C@H]2SC1 [CEFADROXIL]	–	4 days - 6 days	2	0	0	1	0	0	0	–	0	2	0	–	Allergic	1	0	0	3.1
Cc1nnc(SCC2=C(C(=O)O)N3C(=O)[C@@H](NC(=O)Cn4cnnn4)[C@H]3SC2)s1 [CEFAZOLIN]	–	1 week - 25 days	1	0	0	11	0	0	0	–	0	2	0	–	Allergic	1	0	0	42.9
COc1cc(/C=C/C(=O)O)ccc1O [FERULATE]	0	2 days - 5 years	1	0	0	0	0	1	0	0	0	2	2	0	Dose-dependant	1	–	–	–
CC1=C(/C=C/C(C)=C/C=C/C(C)=C\C(=O)O)C(C)(C)CCC1 [ISOTRETINOIN]	0	4 months	0	1	0	35	0	0	0	8.8	0	3	0	44.4	Dose-dependant	1	–	–	–
CC(=O)Nc1cc([As](=O)(O)O)ccc1O [ACETARSONE]	0	2 cures - 3 cures	0	0	0	0	0	0	0	0	0	2	0	0	Allergic	0	–	–	–
CCCCN1CCCCC1C(=O)Nc1c(C)cccc1C (stereo not drawn) [BUPIVACAINE]	0	2 weeks - 1 month	2	0	0	0	0	0	0	0	0	2	0	0	Allergic	1	–	–	–
CN[C@@H]1[C@H](O[C@H]2[C@H](O[C@H]3[C@H](O)[C@@H](O)[C@H](NC(=N)N)[C@@H](O)[C@@H]3NC(=N)N)O[C@@H](C)[C@]2(O)CO)O[C@@H](CO)[C@H](O)[C@H]1O [DIHYDROSTREPTOMYCIN]	0	< 1 days	0	0	0	0	0	0	0	0	0	1	0	0	Allergic	1	–	–	–
CN(C)/N=N/c1[nH]cnc1C(N)=O [DACARBAZINE]	6	1 cure - 4 cures	2	0	0	12	0	0	0	0	24	5	0	50	Allergic, Toxic	4	–	–	–
CN1CCN(CCCN2c3ccccc3Sc3ccc(S(=O)(=O)N(C)C)cc32)CC1 [THIOPROPERAZINE]	0	24 days - > 1 month	1	0	0	0	0	0	0	0	0	2	0	0	Allergic	2	–	–	–
CC(C)[C@@H](CC[C@@H](C)[C@H]1CC[C@H]2[C@@H]3[C@H](O)C[C@H]4C[C@@H](NCCCNCCCCN)CC[C@]4(C)[C@H]3CC[C@]12C)OS(=O)(=O)O [SQUALAMINE]	0	2 days - 5 days	1	0	0	1	0	0	0	38.5	0	2	0	0	Dose-dependant	2	–	–	–
O=C1CC[C@@]2(O)[C@H]3Cc4ccc(O)c5c4[C@@]2(CCN3CC2CC2)[C@H]1O5 [NALTREXONE]	–	1 month - 2 months	0	0	0	9	0	0	0	–	0	3	0	–	Dose-dependant	3	0	0	20
CO/N=C(\C(=O)N[C@@H]1C(=O)N2C(C(=O)O)=C(COC(N)=O)CS[C@H]12)c1ccco1 [CEFUROXIME]	1	2 days	0	0	0	8	0	0	0	0	0	1	0	29.1	Allergic	1	–	–	–
